In PubChem BioAssay (NCI) one finds GI50 and TGI data, which are given here for eight compounds.

In general, GI50 refers to the concentration giving 50% growth inhibition. Broadly, the TGI is the concentration at which net growth stops. Low readings indicate greater sensitivity of the cells, high ones lower sensitivity of the cells.

Among the test systems are ACHN renal; EKVX NSCLC; HCC-2998 colon; HL-60(TB) leukemia; KM12 colon; NCI-H226 lung; OVCAR-5 ovarian; PC-3 prostate; SF-295 CNS; SK-MEL-28 melanoma.
What all share (assay): DTP human tumour cell line panel, 48 h

Structures are written as SMILES. Where “and” joins values, the source holds several entries; their conditions need not be identical. Identical values can stand only once.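 Results reflect a 48-hour exposure of cells in 96-well plates to compound at five concentrations. At the GI50, growth is halved. Definition used: TGI = concentration required for complete inhibition of growth.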

Turning to `Nc1c2ccccc2nc2ccccc12` (tested in a mixture with another compound), the GI50 in the assay on ACHN renal was 0.779 µM; in the assay on EKVX NSCLC it was 2.01 µM; in the assay with HCC-2998 colon it was 1.85 µM; with HL-60(TB) leukemia, 3.24 µM; in the assay on KM12 colon, 2.22 µM; in the assay with NCI-H226 lung it was 1.17 µM. Moreover, the GI50 in the assay on OVCAR-5 ovarian was 2.96 µM; with PC-3 prostate, 2.44 µM; in the assay with SF-295 CNS, 2.1 µM; in the assay on SK-MEL-28 melanoma, 1.99 µM. In addition, the TGI in the assay with ACHN renal came to 8.72 µM; with EKVX NSCLC, 7.65 µM; in the assay with HCC-2998 colon it was 4.6 µM; with HL-60(TB) leukemia, 8.04 µM; in the assay on KM12 colon, 6.77 µM; with NCI-H226 lung it was 3.03 µM. Moreover, the TGI is 13.4 µM in the assay with OVCAR-5 ovarian, 11.1 µM in the assay with PC-3 prostate, 10.5 µM with SF-295 CNS and 3.86 µM in the assay on SK-MEL-28 melanoma.
Turning to `Nc1ccccc1C#Cc1ccccc1C#Cc1cnccn1`, the GI50 was 24.1 µM with ACHN renal; 14.1 µM in the assay with EKVX NSCLC; 21.5 µM in the assay on HL-60(TB) leukemia; 11 µM in the assay with KM12 colon; 17.2 µM in the assay on NCI-H226 lung; 18.6 µM in the assay with OVCAR-5 ovarian. Further, the GI50 in the assay with PC-3 prostate is 12.7 µM; with SF-295 CNS, 11.8 µM; in the assay with SK-MEL-28 melanoma, 17.5 µM. Further, the total growth inhibition concentration (TGI) in the assay on ACHN renal was 46.2 µM; with EKVX NSCLC it was 27.7 µM; in the assay on HL-60(TB) leukemia, above 100 µM; in the assay on KM12 colon, 23.9 µM; with NCI-H226 lung, 32.8 µM; in the assay on OVCAR-5 ovarian it was 43.5 µM. In addition, the TGI was determined as 27.5 µM in the assay with PC-3 prostate, 24 µM with SF-295 CNS and 32 µM with SK-MEL-28 melanoma.
As to `Cn1c(=N)n[n+]([O-])c2ccccc21`, the TGI in the assay on ACHN renal was 23.5 µM and 22 µM; in the assay with EKVX NSCLC, 18.3 µM; with HCC-2998 colon it was 39.1 µM; in the assay on HL-60(TB) leukemia, 10.1 µM and 10.4 µM; with KM12 colon it was 37.8 µM and 36.7 µM; in the assay on NCI-H226 lung, 24.8 µM and 32.4 µM. In addition, the TGI with OVCAR-5 ovarian is 3.83 µM and 7.61 µM; with PC-3 prostate, above 100 µM; with SF-295 CNS, 4.49 µM and 15.2 µM; with SK-MEL-28 melanoma, 5.88 µM and 15.6 µM. Besides, in the assay with SK-MEL-28 melanoma, the GI50 is 2.42 µM and 7.01 µM.
Regarding `N#CSc1ccc(S(N)(=O)=O)cc1`, the TGI in the assay with ACHN renal is above 100 µM; in the assay on EKVX NSCLC, above 100 µM; in the assay with HCC-2998 colon, above 100 µM; with HL-60(TB) leukemia, 37.1 µM; in the assay on KM12 colon it was above 100 µM; in the assay with NCI-H226 lung, above 100 µM. Also, the TGI in the assay with OVCAR-5 ovarian, in the assay on PC-3 prostate, in the assay on SF-295 CNS and in the assay with SK-MEL-28 melanoma was above 100 µM in each case.
For `CC#CC(=O)N1CC[C@@H](n2c(=O)n(-c3ccc(Oc4ccccc4)cc3)c3c(N)ncnc32)C1`, the GI50 in the assay with ACHN renal was 21.4 µM; in the assay on EKVX NSCLC, 19.7 µM; with HCC-2998 colon, 42.5 µM; in the assay with HL-60(TB) leukemia, 23.5 µM; with KM12 colon it was 32.9 µM; in the assay on NCI-H226 lung it was 23.1 µM. The GI50 is 46.6 µM in the assay on OVCAR-5 ovarian, 29.1 µM in the assay with PC-3 prostate, 29.5 µM in the assay on SF-295 CNS and 35.8 µM with SK-MEL-28 melanoma. The concentration for total growth inhibition (TGI) is above 100 µM in the assay on ACHN renal; above 100 µM in the assay on EKVX NSCLC; above 100 µM in the assay with HCC-2998 colon; 77.4 µM in the assay with HL-60(TB) leukemia; above 100 µM in the assay on KM12 colon; above 100 µM in the assay on NCI-H226 lung. For the same compound, the TGI with OVCAR-5 ovarian, with PC-3 prostate, in the assay with SF-295 CNS and in the assay with SK-MEL-28 melanoma was above 100 µM in each case.
With `COc1cnc2c(c1)C(=O)c1c-2n(CCCNC(C)C)c(=O)c2cc([N+](=O)[O-])ccc12`, the GI50 with ACHN renal was 0.0267 µM; with EKVX NSCLC it was 0.134 µM; in the assay on HCC-2998 colon, 0.109 µM; in the assay on HL-60(TB) leukemia, 0.0336 µM; in the assay with KM12 colon it was 0.221 µM; in the assay on NCI-H226 lung it was 0.0651 µM. For the same compound, the GI50 in the assay with OVCAR-5 ovarian was 0.155 µM; in the assay with PC-3 prostate it was 0.211 µM; with SF-295 CNS it was 0.0309 µM; with SK-MEL-28 melanoma it was 0.121 µM. Moreover, the TGI with ACHN renal was found to be 0.121 µM; with EKVX NSCLC, 0.706 µM; in the assay with HCC-2998 colon it was 0.269 µM; in the assay on HL-60(TB) leukemia, 0.111 µM; in the assay on KM12 colon, 0.981 µM; in the assay with NCI-H226 lung, 0.798 µM. In addition, the TGI with OVCAR-5 ovarian stood at 0.624 µM; in the assay on PC-3 prostate, 3.07 µM; in the assay with SF-295 CNS, 0.221 µM; in the assay with SK-MEL-28 melanoma it was 0.351 µM.
As to `Oc1c(I)cc(I)cc1CN(Cc1ccccn1)Cc1ccccn1`, the GI50 was 0.502 µM in the assay with ACHN renal; 0.987 µM with EKVX NSCLC; 4.18 µM in the assay on HCC-2998 colon; 1.3 µM in the assay on HL-60(TB) leukemia; 0.774 µM in the assay with KM12 colon; 1.16 µM in the assay on NCI-H226 lung. Also, the GI50 with OVCAR-5 ovarian is 2.14 µM; in the assay on PC-3 prostate it was 0.898 µM; with SF-295 CNS it was 0.658 µM; in the assay on SK-MEL-28 melanoma it was 1.44 µM. Also, the TGI with ACHN renal was 6.98 µM; with EKVX NSCLC it was 17.2 µM; in the assay on HCC-2998 colon it was 34.7 µM; in the assay on HL-60(TB) leukemia, 7.03 µM; with KM12 colon, above 42.3 µM; in the assay on NCI-H226 lung, 7.48 µM. The TGI in the assay with OVCAR-5 ovarian is 53.5 µM; with PC-3 prostate it was 20.6 µM; in the assay on SF-295 CNS, above 27.1 µM; with SK-MEL-28 melanoma, 31.6 µM.
Consider `O=C(O)c1ccccc1Nc1ccc2nnc(-c3ccncc3)n2n1`, for which the GI50 with ACHN renal was 4.24 µM; in the assay on HCC-2998 colon, 23.5 µM; in the assay on HL-60(TB) leukemia it was 32.5 µM; with KM12 colon, 7.34 µM; with OVCAR-5 ovarian it was 17.4 µM; with PC-3 prostate, 13.4 µM. In addition, the GI50 in the assay with SF-295 CNS was 13.3 µM; in the assay on SK-MEL-28 melanoma it was 12.7 µM. Further, the TGI in the assay on ACHN renal was 17.4 µM; in the assay with HCC-2998 colon it was 52 µM; with HL-60(TB) leukemia it was above 100 µM; with KM12 colon, 23.9 µM; with OVCAR-5 ovarian, 79.3 µM; in the assay on PC-3 prostate, 31.9 µM. Further, the TGI in the assay on SF-295 CNS was 40.1 µM; in the assay with SK-MEL-28 melanoma it was 29.6 µM.
